The results in this text go back to ChEMBL document CHEMBL5608200, “Design, synthesis, and evaluation of antitumor activity of 2-arylmethoxy-4-(2-fluoromethyl-biphenyl-3-ylmethoxy) benzylamine derivatives as PD-1/PD-l1 inhibitors” (Eur J Med Chem, 2024).

The source made the active and inactive calls. The rule behind the calls is not given here.

Series [1] can be described thus: AUC(0 to infinity) in Sprague-Dawley rat at 50 mg/kg, IG measured upto 48 hrs by LC-MS/MS analysis. In kind it is ADME, organism-based. Particulars: in vivo, po.
Series [2] relates to HCC827. Kind of series: Induction of T-cell mediated apoptosis in human HCC827 cells cocultured with PMA-stimulated Jurkat T cells assessed as mortality rate at 8 uM incubated for 48 hrs by CCK-8 assay. The format is functional. In general terms: Tetrazolium dyes change colour on reduction, which living cells bring about.
Series [3] is described as follows: Toxicity in PD-1/PD-L1 humanized C57BL/6 mouse implanted with mouse MC38 cells expressing hPD-L1 assessed as nephrotoxicity at 50 mg/kg, IG QD administered for 15 days. The format is organism-based, MC-38. Particulars: in vivo, po, 360 h, time 15 day.
Series [4] has as its system MDA-MB-231. Kind of series: Induction of T-cell mediated apoptosis in human MDA-MB-231 cells cocultured with PMA-stimulated Jurkat T cells assessed as mortality rate at 8 uM incubated for 48 hrs by CCK-8 assay. The format is functional.
The nature of series [5]: Oral bioavilability in Sprague-Dawley rat at 50 mg/kg measured upto 48 hrs by LC-MS/MS analysis. Particulars: in vivo. The format is ADME, organism-based.
Series [6] concerns MC-38. Briefly: Antitumor activity against mouse MC38 cells expressing hPD-L1 implanted in PD-1/PD-L1 humanized C57BL/6 mouse assessed as upregulation of perforin expression at 50 mg/kg, IG QD administered for 15 days by immunohistochemistry analysis. In kind it is functional, organism-based. To be noted: time 15.0 day.
Series [7] relates to MDA-MB-231. Kind of series: Cytotoxicity against human MDA-MB-231 cells at 1 to 32 uM incubated for 48 hrs by CCK-8 assay. In kind it is functional, cell-based. To be noted: dose 1-32 µM.
Series [8] can be described thus: AUC(0 to t) in Sprague-Dawley rat at 10 mg/kg, iv measured upto 48 hrs by LC-MS/MS analysis. The format is ADME, organism-based. Particulars: in vivo.
Series [9] can be described thus: Half-life in Sprague-Dawley rat at 50 mg/kg, IG measured upto 48 hrs by LC-MS/MS analysis. In kind it is ADME, organism-based. Particulars: in vivo, po.
Series [10] has as its system MC-38. Kind of series: Antitumor activity against mouse MC38 cells expressing hPD-L1 implanted in PD-1/PD-L1 humanized C57BL/6 mouse assessed as upregulation of CXCL10 mRNA expression at 50 mg/kg, IG QD administered for 15 days by RT-PCR analysis. In kind it is functional, organism-based. To be noted: time 15.0 day.
The subject of series [11] is MC-38. Kind of series: Antitumor activity against mouse MC38 cells expressing hPD-L1 implanted in PD-1/PD-L1 humanized C57BL/6 mouse assessed as upregulation of CXCL9 mRNA expression at 50 mg/kg, IG QD administered for 15 days by RT-PCR analysis. In kind it is functional, organism-based. To be noted: time 15.0 day.
The test system of series [12] is MC-38. Kind of series: Antitumor activity against mouse MC38 cells expressing hPD-L1 implanted in PD-1/PD-L1 humanized C57BL/6 mouse assessed as upregulation of granzyme B expression at 50 mg/kg, IG QD administered for 15 days by immunohistochemistry analysis. The format is functional, organism-based. To be noted: time 15.0 day.
Series [13] relates to MC-38. Kind of series: Antitumor activity against mouse MC38 cells expressing hPD-L1 implanted in PD-1/PD-L1 humanized C57BL/6 mouse assessed as tumor growth inhibition at 50 mg/kg, IG QD administered for 15 days and measured every day by caliper method. The format is functional. Particulars: MC-38, po, 360 h, time 15 day, read-out: TGI.
Series [14] concerns HCC827. Kind of series: Induction of T-cell mediated apoptosis in human HCC827 cells cocultured with PMA-stimulated Jurkat T cells assessed as mortality rate at 16 uM incubated for 48 hrs by CCK-8 assay. In kind it is functional.
Series [15] deals with A549. Kind of series: Induction of T-cell mediated apoptosis in human A549 cells cocultured with PMA-stimulated Jurkat T cells assessed as mortality rate at 1 to 32 uM incubated for 48 hrs by CCK-8 assay. In kind it is functional, cell-based. To be noted: dose 1-32 µM.

One may read the AUC(0-inf) as the area under the concentration-time curve extrapolated to infinity. Higher therefore signals more exposure. The term bioavailability denotes dose-corrected exposure relative to a reference, in per cent. Higher therefore signals good availability. What is called AUC(0-t) is exposure summed from dosing to a finite time, without extrapolation to infinity. Low readings indicate low exposure, high ones high exposure. In series [1], `N#Cc1cncc(COc2cc(OCc3cccc(-c4ccc5c(c4)OCCO5)c3C(F)F)ccc2CNCCO)c1` gave an AUC(0-inf) of 42000 ng·h/mL. Further, the Activity was 51.7% in [2], “Non-Toxic” in series [3], 45.9% in [4] and 59.6% in series [14]. In series [5], the bioavailability came to 65.3%. Also, the result in series [6], in series [10], in series [11] and in series [12] was Active. Besides, the result in [7] and in series [15] was inactive. Moreover, the AUC(0-t) at 48 h in series [8] is 12800 ng·h/mL. The t1/2 in series [9] turned out to be 5.52 h. Further, the inhibition in vivo at 50 mg/kg in series [13] was 57.3%.
